Holding throughout (assay type): organism-based
Assay [1] deals with T1, Phenylethanolamine N-methyltransferase (Mus musculus) (UniProt P40935).
T1 sequence (whole entry): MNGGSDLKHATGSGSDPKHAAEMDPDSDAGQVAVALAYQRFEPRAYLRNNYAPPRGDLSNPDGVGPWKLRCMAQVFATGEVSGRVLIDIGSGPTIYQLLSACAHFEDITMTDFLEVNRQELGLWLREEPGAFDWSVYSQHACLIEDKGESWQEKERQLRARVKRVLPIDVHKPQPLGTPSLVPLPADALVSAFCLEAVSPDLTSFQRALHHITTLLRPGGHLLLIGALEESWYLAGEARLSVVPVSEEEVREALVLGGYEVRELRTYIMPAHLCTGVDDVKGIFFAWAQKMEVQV
Nature of the assay: Phenylethanolamine N-Methyltransferase inhibition assay in a 7-day mouse study was determined by epinephrine level at 50 mg/kg dose. Set-up: dose 50 mg/kg.

Assay [2] concerns the target T1, Phenylethanolamine N-methyltransferase (Mus musculus). As to the kind of experiment: Phenylethanolamine N-Methyltransferase inhibition assay in a 7-day mouse study was determined by epinephrine level at 25 mg/kg dose. Set-up: dose 25 mg/kg.
The target is the same in assay [3]. As to the kind of experiment: Phenylethanolamine N-Methyltransferase inhibition assay in a 7-day mouse study was determined by epinephrine level at 100 mg/kg dose. The arrangement: dose 100 mg/kg.
Assay [4] concerns the target T2, Phenylethanolamine N-methyltransferase (Homo sapiens) (UniProt P11086).
T2 sequence (whole entry): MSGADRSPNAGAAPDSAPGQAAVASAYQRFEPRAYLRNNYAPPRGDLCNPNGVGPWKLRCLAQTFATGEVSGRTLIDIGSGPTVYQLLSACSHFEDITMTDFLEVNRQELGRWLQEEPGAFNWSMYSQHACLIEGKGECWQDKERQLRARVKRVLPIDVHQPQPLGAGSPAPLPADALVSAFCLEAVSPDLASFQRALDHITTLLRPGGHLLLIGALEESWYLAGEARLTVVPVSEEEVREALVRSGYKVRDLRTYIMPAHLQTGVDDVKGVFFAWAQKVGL
Nature of the assay: Epinephrine to norepinephrine ratio at 100 mg/kg dose. As to conditions: Oryctolagus cuniculus. The arrangement: dose 100 mg/kg.

Structures are written as SMILES.

These results are taken from ChEMBL document CHEMBL1121600, “Inhibitors of phenylethanolamine N-methyltransferase and epinephrine biosynthesis. 2. 1,2,3,4-Tetrahydroisoquinoline-7-sulfonanilides” (J Med Chem, 1980).

As for `NS(=O)(=O)c1ccc2c(c1)CNCC2`, the values for the Epinephrine level in assay [1], in assay [2] and in assay [3] were 5.9, 6.7 and 5.8, respectively.

Regarding `O=S(=O)(Nc1ccc(Br)cc1)c1ccc2c(c1)CNCC2`, the Ratio in assay [4] stood at 2.1. The compound further displayed an Epinephrine level in assay [3] of 7.

The compound `O=S(=O)(Nc1ccc(Cl)cc1)c1ccc2c(c1)CNCC2` yielded an Epinephrine level in assay [2] of 8.
